How the values were obtained:
[1] = Pharmacokinetics in nude mouse; format: in vivo; conditions: female, BALB/c nude, plasma
Protocol: Test animal: female nude mouse (BALB/c), weight: 20-25 g/mouse.
Solvent for intraveneous injection (iv): 5% DMSO+10% PEG400+85% (28% HP-β-CD)
Solvent for intragastric administration (po): 2% HPC+0.1% Tween 80
0.1283 mL and 0.1059 mL 1M hydrochloric acid solution were separately added to adjust pH to 4.
Compound 2, 27: Compound 27 (3.18 mg) and Compound 2 (3.17 mg) were weighed, respectively, and solvent for intraveneous injection was added to prepare a clear and transparent solution at a theoretical concentration of 1.0 mg/mL.
After homogeneous dispersion, a suspension at a theoretical concentration of 1.0 mg/mL was obtained.
Collection time point: 0.083 h, 0.25 h, 0.5 h, 1 h, 2 h, 4 h, 6 h, 8 h after administration.
60 μL whole blood was collected from intraocular canthus at each time point, and was centrifuged at 8000 r/min for 6 min in a low-temperature centrifuge to separate plasma; the plasma was stored in a refrigerator at −80° C.
The plasma sample of Compound 2 was analyzed by means of protein precipitation: 10 μL plasma was transferred to a 1.5 mL EP tube, 10 μL blank plasma was added, and the mixture was mixed homogeneously under vortexing. 200 μL internal standard (acetonitrile solution containing 25 ng/mL CNX-2006) was added; the resultant mixture was vortexted for 3 min, and then centrifuged at 12000 rpm for 5 min; 150 μL supernatant was accurately taken, to which 50 μL purified water was added. The resultant mixture was vortexed for 3 min and analyzed by LC-MS/MS.

[2] = tested on: A431 cell (wild-type EGFR gene); assay: In vitro cytologic activity, Celltiter-Glo, A431 cells; format: cell-based; conditions: Homo sapiens, A-431, 72 h
Protocol: (§1) 1.1 Preparation of Cell Suspension
(§2) Culture medium was removed from culture bottle;
(§3) PBS was added to wash the cells; • pancreatin was added for digestion, and the cells were collected by centrifugation; • the cells were resuspended in a culture medium containing 10% fetal bovine serum, counted and adjusted to a concentration of 2×10^4/mL or 3×10^4/mL (cell viability must be greater than 90%); • the cell suspension was added to a 96-well plate, at 100 μL for each well, i.e., 2000/well for H1975 cell; 3000/well for A431 cell; and • the cells were cultured at 37° C. in 5% CO2 incubator overnight.
(§4) Dilution of a compound in DMSO (or water for injection) • (1) The compound was 5-fold diluted with DMSO from 10 mM to 2 mM, and then 4-fold diluted from 2 mM, to get 10 concentrations; • High control (HC, control without compound inhibition): 0.5% DMSO; • Low control (LC, control with compound inhibition): 1000 nM.
(§5) i. To each well, 99 μL growth medium containing 10% FBS was added, and then 1 μL diluted compound was added, the total volume of the well was […], and the final concentration of the compound was measured.
(§6) The test plate was left at room temperature, and equilibrated for 30 min. 80 μL culture medium was discarded. 60 μL CTG reagent (Celltiter-Glo kit) was added, and shaked for 2 min in a fast shaker, and was placed at room temperature for 10 min. The values were read by Envision instrument.

[3] = tested on: H1975 cell (EGFR-T790M/L858R double mutation); assay: In vitro cytologic activity, Celltiter-Glo, H1975 cells; format: cell-based, human; conditions: for IC50: Homo sapiens, NCI-H1975, 72 h, 72 h, Celltiter-Glo
Protocol: as §1, §2, §3, §4, §5, §6

[4] = tested on: H1975 human non-small cell lung cancer xenograft; assay: Pharmacodynamics in vivo, H1975 xenograft tumor-bearing nude mice; parameters: species or system BALB/c nude mouse; conditions: PO; for TV (tumor volume) / Body weight After administration / Body weight Before administration: mean ± standard error
Description: Genus: Rodent, Line: BALB/c nude, age: 6-8 weeks, gender: female, body weight: 18-22 g. Provider of experimental animals: Beijing Ankaiyibo Biological Technology Co. Ltd., Production license No. SCXK(Jing) 2012-0009. Quality Certificate No. 11402400000256 […] The tumor cells in logarithmic growth phase were used in tumor inoculation in vivo. […] When the tumor grew into a volume of about 100 mm^3, the animals were grouped and administered, 8 mice per group. […] Test compound solutions were prepared immediately before administration every day. [table] Vernier caliper was used to measure the volume of tumor twice a week. The long diameter and short diameter of tumor were measured. The volume was calculated by the formula: volume=0.5×long diameter×short diameter^2. According to the measurement results, relative tumor volume (RTV) and relative tumor volume increasing rate (T/C) were calculated. RTV=Vt/V0, wherein Vt is the average value of tumor volume on day t after grouping and administration, V0 is the average value of tumor volume at the day when grouping. T/C=TRTV/CRTV×100%, wherein TRTV is the RTV in the treatment group, and CRTV is the RTV in the solvent control group. […] One-Way ANOVA test was carried out by SPSS17.0 statistic software. Tumor volume was analysed in statistics among groups. P<0.05 is indicative of significant difference.

EGFR (d746-750)-T790M = EGFR (d746-750)-T790M (Homo sapiens (Human), UniProt P00533, DEL746-750/T790M); assay: Mobility Shift Assay, in vitro enzyme-inhibiting activity, EGFR (d746-750)-T790M; format: biochemical; conditions: Table 6
Protocol: (§7) 1. Preparation of Reagents
(§8) 2. Preparation of a Compound Solution
(§9) (1) To the second well of a 96-well plate, 5 μL 10 mM compound (dissolved in DMSO) was added, and 95 μL 100% DMSO was added to prepare 100 μL 0.5 mM compound.
(§10) (2) To other wells, 60 μL 100% DMSO was added. 20 μL compound from the second well was added to the third well, and 4-fold dilution was further performed to get 10 diluted concentrations.
(§11) (3) To the first well and the twelfth well of the 96-well plate, 100 μL 100% DMSO was separately added, and the two wells were used as control wells.
(§12) (4) 10 μL from each well of the 96-well plate was added to another 96-well plate, and 90 μL 1-fold kinase buffer was added.
(§13) (5) 5 μL from the 96-well plate was added to another 384-well plate, for example, transferred from A1 well of the 96-well plate to A1 and A2 wells of the 384-well plate, and transferred from A2 well of the 96-well plate to A3 and A4 wells of the 384-well plate, and so on.
(§14) To 384-well plate, 10 μL 2.5-fold enzyme solution was added, and incubated at room temperature for 10 min.
(§15) (5) Kinase reaction and stop
(§16) After incubation at 28° C. for a period of time (depending on kinase), 25 μL stop solution was added.
(§17) 4. Data on percent conversion was read by Caliper.
(§18) (1) Data on enzyme activity was obtained by Caliper program;
(§19) (2) Inhibition rate of enzyme activity was calculated from the data on enzyme activity by the following formula: Inhibition rate(%)=(maximal value−the measured value of a test compound)/(maximal value-minimal value)×100,
(§20) wherein, the maximal value represents the measured value of DMSO control; and the minimal value represents the measured value of blank control.
(§21) (3) Calculation of IC50 value by XLFit excel.

EGFR T790M = EGFR T790M (Homo sapiens (Human), UniProt P00533, T790M); assay: Mobility Shift Assay, in vitro enzyme-inhibiting activity, EGFR T790M; format: biochemical; conditions: Table 6
Protocol: as §7, §8, §9, §10, §11, §12, §13, §14, §15, §16, §17, §18, §19, §20, §21

EGFR (d746-750) = EGFR (d746-750) (Homo sapiens (Human), UniProt P00533, DEL746-750); assay: Mobility Shift Assay, in vitro enzyme-inhibiting activity, EGFR (d746-750); format: biochemical; conditions: Table 6
Protocol: as §7, §8, §9, §10, §11, §12, §13, §14, §15, §16, §17, §18, §19, §20, §21

EGFR L858R = EGFR L858R (Homo sapiens (Human), UniProt P00533, L858R); assay: Mobility Shift Assay, in vitro enzyme-inhibiting activity, EGFR L858R; format: biochemical; conditions: Table 6
Protocol: as §7, §8, §9, §10, §11, §12, §13, §14, §15, §16, §17, §18, §19, §20, §21

wild-type EGFR (WT EGFR) = wild-type EGFR (WT EGFR) (Homo sapiens (Human), UniProt P00533); assay: Mobility Shift Assay, in vitro enzyme-inhibiting activity, wild-type EGFR; format: biochemical; conditions: Table 6; Km ATP
Protocol: as §7, §8, §9, §10, §11, §12, §13, §14, §15, §16, §17, §18, §19, §20, §21

EGFR T790M-L858R = EGFR T790M-L858R (Homo sapiens (Human), UniProt P00533, L858R/T790M); assay: Mobility Shift Assay, in vitro enzyme-inhibiting activity, EGFR T790M-L858R; format: biochemical; conditions: Table 6
Protocol: as §7, §8, §9, §10, §11, §12, §13, §14, §15, §16, §17, §18, §19, §20, §21

EGFR T790M, sequence (P00533 25-1210 T790M): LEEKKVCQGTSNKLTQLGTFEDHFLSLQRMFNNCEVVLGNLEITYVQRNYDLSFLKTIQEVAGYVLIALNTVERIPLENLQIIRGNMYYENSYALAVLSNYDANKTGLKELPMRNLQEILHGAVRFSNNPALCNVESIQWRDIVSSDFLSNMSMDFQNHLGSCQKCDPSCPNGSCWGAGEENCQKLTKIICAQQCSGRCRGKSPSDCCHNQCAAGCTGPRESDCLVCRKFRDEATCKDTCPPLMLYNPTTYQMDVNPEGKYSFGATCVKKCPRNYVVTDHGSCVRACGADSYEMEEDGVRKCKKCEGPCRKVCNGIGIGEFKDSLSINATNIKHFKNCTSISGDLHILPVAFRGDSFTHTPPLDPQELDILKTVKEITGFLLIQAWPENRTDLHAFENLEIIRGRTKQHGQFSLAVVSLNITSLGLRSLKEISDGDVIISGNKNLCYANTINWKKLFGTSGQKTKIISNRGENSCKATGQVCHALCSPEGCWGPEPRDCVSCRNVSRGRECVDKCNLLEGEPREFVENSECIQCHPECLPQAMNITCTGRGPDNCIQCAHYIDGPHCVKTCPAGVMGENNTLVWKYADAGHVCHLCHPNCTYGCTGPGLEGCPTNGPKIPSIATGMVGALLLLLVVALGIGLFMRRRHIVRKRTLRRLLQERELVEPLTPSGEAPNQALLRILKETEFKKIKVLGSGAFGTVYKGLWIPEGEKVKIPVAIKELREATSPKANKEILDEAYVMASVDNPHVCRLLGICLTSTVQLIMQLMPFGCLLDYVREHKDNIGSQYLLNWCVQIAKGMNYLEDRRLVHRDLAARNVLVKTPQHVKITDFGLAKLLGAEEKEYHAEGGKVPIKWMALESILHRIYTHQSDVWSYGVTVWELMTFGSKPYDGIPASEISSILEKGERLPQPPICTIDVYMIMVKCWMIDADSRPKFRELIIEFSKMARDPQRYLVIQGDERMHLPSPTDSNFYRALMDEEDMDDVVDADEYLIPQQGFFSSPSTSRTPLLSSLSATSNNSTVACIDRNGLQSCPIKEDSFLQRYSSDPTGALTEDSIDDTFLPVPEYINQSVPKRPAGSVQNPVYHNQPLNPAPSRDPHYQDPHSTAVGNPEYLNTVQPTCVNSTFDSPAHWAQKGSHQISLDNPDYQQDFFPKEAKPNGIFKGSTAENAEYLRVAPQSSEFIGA
EGFR L858R, sequence (P00533 25-1210 L858R): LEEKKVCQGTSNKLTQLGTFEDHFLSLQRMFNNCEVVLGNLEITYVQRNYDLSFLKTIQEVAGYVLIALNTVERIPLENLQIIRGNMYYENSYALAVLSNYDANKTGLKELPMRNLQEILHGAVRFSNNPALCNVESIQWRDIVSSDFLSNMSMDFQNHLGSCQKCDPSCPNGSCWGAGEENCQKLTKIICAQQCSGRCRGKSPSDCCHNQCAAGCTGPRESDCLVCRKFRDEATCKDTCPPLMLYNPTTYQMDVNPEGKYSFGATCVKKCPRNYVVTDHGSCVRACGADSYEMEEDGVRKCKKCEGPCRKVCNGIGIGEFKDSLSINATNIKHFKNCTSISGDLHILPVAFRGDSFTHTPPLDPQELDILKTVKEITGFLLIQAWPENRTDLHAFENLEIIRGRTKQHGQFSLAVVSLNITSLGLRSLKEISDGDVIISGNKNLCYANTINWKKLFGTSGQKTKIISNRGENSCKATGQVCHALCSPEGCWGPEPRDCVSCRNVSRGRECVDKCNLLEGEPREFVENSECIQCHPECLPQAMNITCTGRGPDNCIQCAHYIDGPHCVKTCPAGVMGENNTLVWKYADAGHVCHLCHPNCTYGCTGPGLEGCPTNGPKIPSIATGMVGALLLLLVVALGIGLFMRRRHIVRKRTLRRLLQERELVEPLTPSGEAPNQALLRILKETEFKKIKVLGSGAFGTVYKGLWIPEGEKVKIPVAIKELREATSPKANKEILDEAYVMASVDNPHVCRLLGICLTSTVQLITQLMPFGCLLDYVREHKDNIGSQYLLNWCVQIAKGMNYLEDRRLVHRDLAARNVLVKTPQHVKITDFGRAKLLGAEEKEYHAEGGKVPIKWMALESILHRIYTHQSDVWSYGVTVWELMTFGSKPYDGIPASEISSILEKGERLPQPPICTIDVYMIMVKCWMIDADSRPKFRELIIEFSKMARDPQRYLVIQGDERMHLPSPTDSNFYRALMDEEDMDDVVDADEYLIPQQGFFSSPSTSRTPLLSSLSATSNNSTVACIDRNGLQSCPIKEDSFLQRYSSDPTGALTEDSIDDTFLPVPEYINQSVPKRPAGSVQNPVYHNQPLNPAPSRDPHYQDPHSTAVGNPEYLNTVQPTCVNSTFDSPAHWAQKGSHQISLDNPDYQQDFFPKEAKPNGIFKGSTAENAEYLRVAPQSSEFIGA
EGFR T790M-L858R, sequence (P00533 25-1210 T790M/L858R): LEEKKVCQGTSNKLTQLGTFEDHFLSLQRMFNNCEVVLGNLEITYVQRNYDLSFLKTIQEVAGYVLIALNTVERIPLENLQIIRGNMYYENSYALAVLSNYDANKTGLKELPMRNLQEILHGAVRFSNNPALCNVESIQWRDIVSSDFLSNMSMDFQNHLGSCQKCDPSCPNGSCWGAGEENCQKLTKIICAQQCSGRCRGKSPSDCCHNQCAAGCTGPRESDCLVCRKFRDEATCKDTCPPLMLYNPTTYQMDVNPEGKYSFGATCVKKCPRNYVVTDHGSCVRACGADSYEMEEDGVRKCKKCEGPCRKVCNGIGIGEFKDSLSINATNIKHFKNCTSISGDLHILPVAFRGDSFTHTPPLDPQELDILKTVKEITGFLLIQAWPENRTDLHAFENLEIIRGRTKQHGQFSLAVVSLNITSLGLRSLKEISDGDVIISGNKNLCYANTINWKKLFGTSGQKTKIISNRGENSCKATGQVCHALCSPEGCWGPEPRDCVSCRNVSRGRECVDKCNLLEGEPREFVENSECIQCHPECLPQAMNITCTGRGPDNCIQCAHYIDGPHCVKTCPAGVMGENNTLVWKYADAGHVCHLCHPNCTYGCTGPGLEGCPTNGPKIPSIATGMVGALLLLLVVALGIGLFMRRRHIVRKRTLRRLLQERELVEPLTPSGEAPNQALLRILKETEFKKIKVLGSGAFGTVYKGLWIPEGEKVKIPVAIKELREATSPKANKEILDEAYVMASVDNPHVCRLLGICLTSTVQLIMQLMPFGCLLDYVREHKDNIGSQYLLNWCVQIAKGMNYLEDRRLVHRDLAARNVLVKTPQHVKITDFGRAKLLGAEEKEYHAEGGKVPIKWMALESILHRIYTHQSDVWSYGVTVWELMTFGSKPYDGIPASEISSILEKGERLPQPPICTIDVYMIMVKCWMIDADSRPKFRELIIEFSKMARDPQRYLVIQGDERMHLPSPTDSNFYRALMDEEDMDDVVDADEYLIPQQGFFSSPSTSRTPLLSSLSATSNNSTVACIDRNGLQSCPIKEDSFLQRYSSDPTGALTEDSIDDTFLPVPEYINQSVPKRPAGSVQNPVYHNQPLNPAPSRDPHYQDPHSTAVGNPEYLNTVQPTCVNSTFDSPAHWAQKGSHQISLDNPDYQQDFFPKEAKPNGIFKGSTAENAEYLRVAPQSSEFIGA
EGFR (d746-750)-T790M, sequence (P00533 other isoform, or with tags, fused parts or gaps T790M/del 1-668/del 746-750 limits assumed): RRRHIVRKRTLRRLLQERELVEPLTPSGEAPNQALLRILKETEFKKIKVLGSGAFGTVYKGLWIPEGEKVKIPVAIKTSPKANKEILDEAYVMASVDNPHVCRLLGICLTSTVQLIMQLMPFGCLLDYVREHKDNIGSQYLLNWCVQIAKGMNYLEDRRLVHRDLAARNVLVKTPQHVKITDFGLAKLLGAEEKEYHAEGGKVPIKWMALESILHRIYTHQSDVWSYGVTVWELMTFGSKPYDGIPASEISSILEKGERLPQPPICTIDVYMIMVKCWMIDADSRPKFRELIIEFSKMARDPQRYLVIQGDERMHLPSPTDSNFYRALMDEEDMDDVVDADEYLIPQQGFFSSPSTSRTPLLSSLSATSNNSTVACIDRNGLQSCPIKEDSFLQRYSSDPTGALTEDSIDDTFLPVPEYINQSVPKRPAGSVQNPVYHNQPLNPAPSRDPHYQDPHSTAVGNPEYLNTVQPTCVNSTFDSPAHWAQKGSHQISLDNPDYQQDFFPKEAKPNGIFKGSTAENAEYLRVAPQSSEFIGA
EGFR (d746-750), sequence (P00533 other isoform, or with tags, fused parts or gaps del 1-668/del 746-750 limits assumed): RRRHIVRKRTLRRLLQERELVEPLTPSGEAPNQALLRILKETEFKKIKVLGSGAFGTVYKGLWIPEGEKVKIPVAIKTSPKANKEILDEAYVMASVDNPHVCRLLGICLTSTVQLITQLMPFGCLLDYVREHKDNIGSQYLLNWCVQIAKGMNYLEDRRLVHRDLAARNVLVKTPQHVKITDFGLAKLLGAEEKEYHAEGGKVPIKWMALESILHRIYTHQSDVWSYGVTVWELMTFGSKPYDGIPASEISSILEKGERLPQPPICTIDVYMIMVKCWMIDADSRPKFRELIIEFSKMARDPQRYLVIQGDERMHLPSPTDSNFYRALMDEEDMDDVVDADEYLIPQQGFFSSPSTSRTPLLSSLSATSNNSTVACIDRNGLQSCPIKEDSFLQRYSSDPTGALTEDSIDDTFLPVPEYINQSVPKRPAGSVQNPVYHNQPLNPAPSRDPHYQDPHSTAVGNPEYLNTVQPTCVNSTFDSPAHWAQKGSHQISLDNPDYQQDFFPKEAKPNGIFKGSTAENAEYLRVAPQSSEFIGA

## C=CC(=O)Nc1cccc(Nc2nc(Nc3ccc(N4CCN(C(C)=O)CC4)cc3OC)ncc2C(F)(F)F)c1 [CO-1686, reference compound]
[1]; iv, 5 mg/kg
  AUC(0-t): 4070 ng·h/mL
  clearance: 20.5 mL/min/kg
[1]; po, 13.2 mg/kg
  AUC(0-t): 2380 ng·h/mL
[1]; po, 13.2 mg/kg, read-out: F (absolute bioavailability)
  bioavailability: 22.1%
[2]; Table 9
  IC50: 911 nM
[2]; Table 10, unit inferred
  IC50: 2250 nM
[3]; Table 9
  IC50: 107 nM
[3]; Table 10, unit inferred
  IC50: 465 nM
[4]; Table 17, 30 mg/kg
  TGI (tumor growth-inhibiting rate): 38.8%
  Body weight After administration: 22.1 ± 0.3 g
  Body weight Before administration: 20.6 ± 0.3 g
[4]; Table 17, 30 mg/kg, 19 days after inoculation
  TV (tumor volume): 666 ± 30 mm^3
[4]; Table 17, 100 mg/kg
  TGI (tumor growth-inhibiting rate): 71.2%
  Body weight After administration: 21.5 ± 0.5 g
  Body weight Before administration: 20.6 ± 0.4 g
[4]; Table 17, 100 mg/kg, 19 days after inoculation
  TV (tumor volume): 317 ± 44 mm^3
[4]; Table 18, 10 mg/kg, QD × 18
  TGI (tumor growth-inhibiting rate): 30.8%
  Body weight After administration: 22.4 ± 0.5 g
  Body weight Before administration: 20.7 ± 0.4 g
[4]; Table 18, 10 mg/kg, QD × 18, 23 days after inoculation
  TV (tumor volume): 729 ± 78 mm^3
[4]; Table 18, 30 mg/kg, QD × 18
  TGI (tumor growth-inhibiting rate): 55.4%
  Body weight After administration: 22.4 ± 0.3 g
  Body weight Before administration: 21.8 ± 0.3 g
[4]; Table 18, 30 mg/kg, QD × 18, 23 days after inoculation
  TV (tumor volume): 485 ± 65 mm^3

## C=CC(=O)Nc1cccc(Nc2nc(Nc3ccc(C4CCN(C)C(=O)C4)cc3OC)ncc2C(F)(F)F)c1 (centres unmarked) [Compound 21, N-(3-((2-((2-methoxy-4-(1-methyl-2-oxopiperidin-4-yl)phenyl)amino)-5-(trifluoromethyl)pyrimidin-4-yl)amino)phenyl)acrylamide]
[2]; Table 10, unit inferred
  IC50: 2500 nM
EGFR (d746-750)-T790M; Km ATP, read-out: IC50 EGFR (d746-750)-T790M
  IC50: 3.5 nM
EGFR (d746-750)-T790M; ratio of IC50
  Selectivity WT/(d746-750)-T790M: 67.4
[3]; Table 10, unit inferred
  IC50: 211 nM
[3]; Table 10, ratio of IC50
  Selectivity (A431/H1975): 11.9
EGFR T790M; Km ATP
  IC50: 3.5 nM
EGFR T790M; ratio of IC50
  Selectivity (WT/T790M): 67.4
EGFR (d746-750); Km ATP
  IC50: 28 nM
EGFR (d746-750); ratio of IC50
  Selectivity WT/d746-750: 8.4
EGFR L858R; Km ATP
  IC50: 35 nM
EGFR L858R; ratio of IC50
  Selectivity WT/L858R: 6.7
wild-type EGFR (WT EGFR)
  IC50: 236 nM
EGFR T790M-L858R; Km ATP
  IC50: 3.3 nM
EGFR T790M-L858R; ratio of IC50
  Selectivity WT/T790M-L858R: 71.5

From US10300058B2, “Tyrosine kinase inhibitor and uses thereof” (Xuanzhu Pharma Co., Ltd., priority 2014, dated 2019)
